We go through 8 compounds from US20240391965A1, “STAPLED ANTIMICROBIAL PEPTIDES (STAMPS) AND USES THEREOF” (Lytica Therapeutics, Inc., priority 2021, published 2024).

Values after ≈ are worked out from the molar mass of the structure shown. Starred links: 1 amine or outer side, 2 acyl side, 3 side chain; linkers in the order of their positions; H or OH if unused. Positions of bridges follow the written chain, without caps; N, C: chain ends. Residues, ends and D or L forms follow the SMILES beside them. Naphthalene(2,6-diCH2) = c1cc2cc(C[*:2])ccc2cc1C[*:1]; mXylylene = c1cc(C[*:1])cc(C[*:2])c1; pXylylene = c1cc(C[*:2])ccc1C[*:1]; X1 = C(=CC[*:2])C[*:1] Bounds are passed on as bounds.

A short description of data set [1]: 48 hours cytotoxicity assay (CellTiter-Glo), liver toxicity. The data set is classed as cell-based, human. Conditions: 48 hours of incubation, CellTiter-Glo; read-out: Inhibitory Concentration at 50% Cytotoxicity (IC50) Human Liver Cells (HepG2). In a few lines: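 HepG2 cells in EMEM with 10% FBS, allowed to attach 4 h, then exposed to serially diluted StAMPs or vehicle for 48 h at 37 °C. Viability read by CellTiter-Glo luminescence.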

Data set [2] can be described thus: 90 minute cytotoxicity assay (LDH release), renal toxicity. It counts as cell-based. The conditions noted are these: 90 minutes of incubation, LDH release; read-out: Inhibitory Concentration at 50% Cytotoxicity (IC50) Human Renal Proximal Tubule Epithelial Cells (RPTEC). In a few lines: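 RPTEC plated overnight, given fresh medium, then exposed to serial peptide dilutions or vehicle for 90 min at 37° C. Medium LDH measured by 10 min reagent incubation and absorbance at 490 nm.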

In data set [3] the test system is Acinetobacter baumannii (A. baumannii). The data set is classed as cell-based. The conditions noted are these: microbroth dilution, 20-24 hours at 37° C. In a few lines: (§1)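 Broth microdilution adapted from CLSI in Mueller-Hinton broth or cation-adjusted MHB II; overnight cultures at 37 °C were regrown 3-4 h, then added to serially diluted peptide at a final 5×10^5 CFU/ml. After 20-24 h at 37 °C, MIC was taken as the lowest peptide concentration with no visible growth.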
In general terms: In broth dilution the organism is exposed to a series of concentrations in liquid medium.

Data set [4] relates to Klebsiella pneumoniae (K. pneumoniae). It counts as cell-based. Conditions: microbroth dilution, 20-24 hours at 37° C. In a few lines: as §1
Data set [5] relates to Staphylococcus aureus (S. aureus). It counts as cell-based. The conditions noted are these: microbroth dilution, 20-24 hours at 37° C. In a few lines:
as §1

The test system of data set [6] is Pseudomonas aeruginosa (P. aeruginosa). The data set is classed as cell-based. The conditions noted are these: microbroth dilution, 20-24 hours at 37° C. In a few lines:
as §1

The test system of data set [7] is Escherichia coli (E. coli). The data set is classed as cell-based. Conditions: microbroth dilution, 20-24 hours at 37° C. In a few lines: as §1

With `CC[C@H](C)[C@H](NC(=O)CN)C(=O)N[C@@H](Cc1ccccc1)C(=O)N[C@@H](CO)C(=O)N[C@@H](CCCCN)C(=O)N[C@@H](CC(C)C)C(=O)N[C@@H](C)C(=O)NCC(=O)N[C@@H](CCCCN)C(=O)N[C@@H](CCCCN)C(=O)N[C@H](C(=O)N[C@H]1CSCC=CCSC[C@@H](C(=O)N[C@@H](CO)C(=O)NCC(=O)N[C@@H](CC(C)C)C(=O)N[C@@H](CCCCN)C(=O)NCC(N)=O)NC(=O)[C@H](CC(C)C)NC(=O)[C@H](CC(C)C)NC(=O)[C@H](CC(N)=O)NC1=O)[C@@H](C)CC` [compound 22] (H-GIFSKLAGKKICNLLCSGLKG-NH2; linker 12-16 via X1), the IC50 in data set [1] and in data set [2] was over 200 µg/mL each time. The “Minimum Inhibitory Concentration (MIC) A. baumannii” value in data set [3] is 64 µg/mL. In data set [4], the “Minimum Inhibitory Concentration (MIC) K. pneumoniae” value was over 64 µg/mL. In addition, in data set [5], the “Minimum Inhibitory Concentration (MIC) S. aureus” value is over 64 µg/mL. Moreover, the “Minimum Inhibitory Concentration (MIC) P. aeruginosa” value in data set [6] worked out at 64 µg/mL. Also, in data set [7], the “Minimum Inhibitory Concentration (MIC) E. coli” value amounted to 32 µg/mL.

As for `CC[C@H](C)[C@H](NC(=O)CN)C(=O)N[C@@H](Cc1ccccc1)C(=O)N[C@@H](CO)C(=O)N[C@@H](CCCCN)C(=O)N[C@@H](CC(C)C)C(=O)N[C@@H](C)C(=O)NCC(=O)N[C@H]1CSCc2ccc(cc2)CSC[C@@H](C(=O)N[C@@H](CC(C)C)C(=O)N[C@@H](CC(C)C)C(=O)N[C@H](C(=O)N[C@@H](CO)C(=O)NCC(=O)N[C@@H](CC(C)C)C(=O)N[C@@H](CCCCN)C(=O)NCC(N)=O)[C@@H](C)CC)NC(=O)[C@H](CCCCN)NC(=O)[C@H]([C@@H](C)CC)NC(=O)[C@H](CCCCN)NC1=O` [compound 13] (H-GIFSKLAGCKIKCLLISGLKG-NH2; linker 9-13 via pXylylene), the IC50 in data set [1] and in data set [2] was over 200 µg/mL in each case. For the same compound, in data set [3], the “Minimum Inhibitory Concentration (MIC) A. baumannii” value amounted to 32 µg/mL. Moreover, the “Minimum Inhibitory Concentration (MIC) K. pneumoniae” value in data set [4] amounted to 64 µg/mL. Besides, the “Minimum Inhibitory Concentration (MIC) S. aureus” value in data set [5] was over 64 µg/mL. In addition, the “Minimum Inhibitory Concentration (MIC) P. aeruginosa” value in data set [6] is 64 µg/mL. Besides, in data set [7], the “Minimum Inhibitory Concentration (MIC) E. coli” value turned out to be 32 µg/mL.

With `CC[C@H](C)[C@H](NC(=O)CN)C(=O)N[C@@H](Cc1ccccc1)C(=O)N[C@@H](CO)C(=O)N[C@@H](CCCCN)C(=O)N[C@@H](CC(C)C)C(=O)N[C@@H](C)C(=O)NCC(=O)N[C@@H](CCCCN)C(=O)N[C@@H](CCCCN)C(=O)N[C@H]1CSCC=CCSC[C@@H](C(=O)N[C@H](C(=O)N[C@@H](CO)C(=O)NCC(=O)N[C@@H](CC(C)C)C(=O)N[C@@H](CCCCN)C(=O)NCC(N)=O)[C@@H](C)CC)NC(=O)[C@H](CC(C)C)NC(=O)[C@H](CC(N)=O)NC(=O)[C@H](CCCCN)NC1=O` [compound 19] (H-GIFSKLAGKKCKNLCISGLKG-NH2; linker 11-15 via X1), the IC50 in data set [1] and in data set [2] was over 200 µg/mL in each case. Besides, the “Minimum Inhibitory Concentration (MIC) A. baumannii” value in data set [3] is over 64 µg/mL. The “Minimum Inhibitory Concentration (MIC) K. pneumoniae” value in data set [4] is over 64 µg/mL. Besides, the “Minimum Inhibitory Concentration (MIC) S. aureus” value in data set [5] is over 64 µg/mL. Also, the “Minimum Inhibitory Concentration (MIC) P. aeruginosa” value in data set [6] is over 64 µg/mL. Moreover, the “Minimum Inhibitory Concentration (MIC) E. coli” value in data set [7] was over 64 µg/mL.

As to `CC[C@H](C)[C@H](NC(=O)CN)C(=O)N[C@H]1CSCC=CCSC[C@@H](C(=O)NCC(=O)N[C@@H](CCCCN)C(=O)N[C@@H](CCCCN)C(=O)N[C@H](C(=O)N[C@@H](CCCCN)C(=O)N[C@@H](CC(N)=O)C(=O)N[C@@H](CC(C)C)C(=O)N[C@@H](CC(C)C)C(=O)N[C@H](C(=O)N[C@@H](CO)C(=O)NCC(=O)N[C@@H](CC(C)C)C(=O)N[C@@H](CCCCN)C(=O)NCC(N)=O)[C@@H](C)CC)[C@@H](C)CC)NC(=O)[C@H](CC(C)C)NC(=O)[C@H](CCCCN)NC(=O)[C@H](CO)NC1=O` [compound 1] (H-GICSKLCGKKIKNLLISGLKG-NH2; linker 3-7 via X1), the IC50 in data set [1] and in data set [2] was over 200 µg/mL in each case. For the same compound, the “Minimum Inhibitory Concentration (MIC) A. baumannii” value in data set [3] turned out to be 8 µg/mL. For the same compound, the “Minimum Inhibitory Concentration (MIC) K. pneumoniae” value in data set [4] worked out at 64 µg/mL. Besides, the “Minimum Inhibitory Concentration (MIC) S. aureus” value in data set [5] was over 64 µg/mL. Also, the “Minimum Inhibitory Concentration (MIC) P. aeruginosa” value in data set [6] was found to be 32 µg/mL. The “Minimum Inhibitory Concentration (MIC) E. coli” value in data set [7] was 8 µg/mL.

With `CC[C@H](C)[C@H](NC(=O)CN)C(=O)N[C@@H](Cc1ccccc1)C(=O)N[C@@H](CO)C(=O)N[C@@H](CCCCN)C(=O)N[C@@H](CC(C)C)C(=O)N[C@@H](C)C(=O)NCC(=O)N[C@@H](CCCCN)C(=O)N[C@@H](CCCCN)C(=O)N[C@H]1CSCc2cccc(c2)CSC[C@@H](C(=O)N[C@H](C(=O)N[C@@H](CO)C(=O)NCC(=O)N[C@@H](CC(C)C)C(=O)N[C@@H](CCCCN)C(=O)NCC(N)=O)[C@@H](C)CC)NC(=O)[C@H](CC(C)C)NC(=O)[C@H](CC(N)=O)NC(=O)[C@H](CCCCN)NC1=O` [compound 17] (H-GIFSKLAGKKCKNLCISGLKG-NH2; linker 11-15 via mXylylene), the IC50 in data set [1] and in data set [2] was over 200 µg/mL in each case. In addition, in data set [3], the “Minimum Inhibitory Concentration (MIC) A. baumannii” value is over 64 µg/mL. Besides, the “Minimum Inhibitory Concentration (MIC) K. pneumoniae” value in data set [4] is over 64 µg/mL. Further, the “Minimum Inhibitory Concentration (MIC) S. aureus” value in data set [5] was over 64 µg/mL. Moreover, the “Minimum Inhibitory Concentration (MIC) P. aeruginosa” value in data set [6] is over 64 µg/mL. Besides, in data set [7], the “Minimum Inhibitory Concentration (MIC) E. coli” value came out at 64 µg/mL.

In the case of `CC[C@H](C)[C@H](NC(=O)CN)C(=O)N[C@@H](Cc1ccccc1)C(=O)N[C@@H](CO)C(=O)N[C@@H](CCCCN)C(=O)N[C@@H](CC(C)C)C(=O)N[C@H]1CSCc2ccc3cc(ccc3c2)CSC[C@@H](C(=O)N[C@@H](CC(C)C)C(=O)N[C@H](C(=O)N[C@@H](CO)C(=O)NCC(=O)N[C@@H](CC(C)C)C(=O)N[C@@H](CCCCN)C(=O)NCC(N)=O)[C@@H](C)CC)NC(=O)[C@H](CC(N)=O)NC(=O)[C@H](CCCCN)NC(=O)[C@H]([C@@H](C)CC)NC(=O)[C@H](CCCCN)NC(=O)[C@H](CCCCN)NC(=O)CNC1=O` [compound 87] (H-GIFSKLCGKKIKNCLISGLKG-NH2; linker 7-14 via Naphthalene(2,6-diCH2)), the IC50 amounted to 54 µg/mL (≈ 22.9 µM) in data set [1] and 44 µg/mL (≈ 18.7 µM) in data set [2]. Further, the “Minimum Inhibitory Concentration (MIC) A. baumannii” value in data set [3] worked out at 4 µg/mL. Moreover, the “Minimum Inhibitory Concentration (MIC) K. pneumoniae” value in data set [4] is 8 µg/mL. In addition, the “Minimum Inhibitory Concentration (MIC) S. aureus” value in data set [5] came out at 64 µg/mL. Besides, the “Minimum Inhibitory Concentration (MIC) P. aeruginosa” value in data set [6] amounted to 8 µg/mL. Moreover, in data set [7], the “Minimum Inhibitory Concentration (MIC) E. coli” value was 4 µg/mL.

Regarding `CC[C@H](C)[C@H](NC(=O)CN)C(=O)N[C@H]1CSCc2ccc3cc(ccc3c2)CSC[C@@H](C(=O)N[C@H](C(=O)N[C@@H](CCCCN)C(=O)N[C@@H](CC(N)=O)C(=O)N[C@@H](CC(C)C)C(=O)N[C@@H](CC(C)C)C(=O)N[C@H](C(=O)N[C@@H](CO)C(=O)NCC(=O)N[C@@H](CC(C)C)C(=O)N[C@@H](CCCCN)C(=O)NCC(N)=O)[C@@H](C)CC)[C@@H](C)CC)NC(=O)[C@H](CCCCN)NC(=O)CNC(=O)[C@H](C)NC(=O)[C@H](CC(C)C)NC(=O)[C@H](CCCCN)NC(=O)[C@H](CO)NC1=O` [compound 55] (H-GICSKLAGKCIKNLLISGLKG-NH2; linker 3-10 via Naphthalene(2,6-diCH2); N-terminus assumed), the IC50 in data set [1] was determined as 53 µg/mL (≈ 23.4 µM); in data set [2] it was 23 µg/mL (≈ 10.1 µM). Besides, in data set [3], the “Minimum Inhibitory Concentration (MIC) A. baumannii” value was determined as 8 µg/mL. Further, the “Minimum Inhibitory Concentration (MIC) K. pneumoniae” value in data set [4] came to 16 µg/mL. In addition, the “Minimum Inhibitory Concentration (MIC) S. aureus” value in data set [5] came out at 32 µg/mL. The “Minimum Inhibitory Concentration (MIC) P. aeruginosa” value in data set [6] was 32 µg/mL. Moreover, the “Minimum Inhibitory Concentration (MIC) E. coli” value in data set [7] came to 8 µg/mL.

Consider `CC[C@H](C)[C@H](NC(=O)CN)C(=O)N[C@@H](Cc1ccccc1)C(=O)N[C@@H](CO)C(=O)N[C@@H](CCCCN)C(=O)N[C@@H](CC(C)C)C(=O)N[C@@H](C)C(=O)NCC(=O)N[C@@H](CCCCN)C(=O)N[C@@H](CCCCN)C(=O)N[C@H](C(=O)N[C@@H](CCCCN)C(=O)N[C@@H](CC(N)=O)C(=O)N[C@@H](CC(C)C)C(=O)N[C@H]1CSCC=CCSC[C@@H](C(=O)N[C@@H](CCCCN)C(=O)NCC(N)=O)NC(=O)CNC(=O)[C@H](CO)NC(=O)[C@H]([C@@H](C)CC)NC1=O)[C@@H](C)CC` [compound 31] (H-GIFSKLAGKKIKNLCISGCKG-NH2; linker 15-19 via X1), for which the IC50 in data set [1] and in data set [2] was over 200 µg/mL in each case. In data set [3], the “Minimum Inhibitory Concentration (MIC) A. baumannii” value is over 64 µg/mL. Besides, the “Minimum Inhibitory Concentration (MIC) K. pneumoniae” value in data set [4] is over 64 µg/mL. The “Minimum Inhibitory Concentration (MIC) S. aureus” value in data set [5] was over 64 µg/mL. For the same compound, the “Minimum Inhibitory Concentration (MIC) P. aeruginosa” value in data set [6] was over 64 µg/mL. Also, the “Minimum Inhibitory Concentration (MIC) E. coli” value in data set [7] was over 64 µg/mL.
